# Measured values as given in patent US6831069B2, “Pyrrolo[2,3-d]pyrimidine nucleoside analogs” (priority 1999, dated 2004).
# Assays:
# CD3+ T cells = assay: Viability by propidium iodide exclusion; format: cell-based, human
# Method: For determination of cytokine protein levels, T-cells (1×10^6 cells in a volume of 1 ml) were activated by the addition of 10 ng PMA plus 0.5 μg ionomycin (both from Calbiochem, La Jolla, Calif.) and incubated in 24 well plates in the presence of 0 to 20 μM nucleoside for up to 48 h at 37° C. and 5% CO2 in a humidified incubator. Following activation, supernatants were analysed for cell-derived cytokine production. For proliferation and viability studies, the protocol as above was modified to a 96 well-plate format using 0.2×10^6 cells in a volume of 0.2 ml and activation with 2 ng PMA and 0.1 μg ionomycin. In separate experiments, 5×10^6 T cells in 2 ml were activated with 20 ng PMA plus 1 μg ionomycin. Here total RNA was isolated from T cells following 6-24 h incubation and analyzed by RT-PCR to determine mRNA levels of various cytokines and inflammatory mediators. […]
# T cell proliferative responses were assessed by measuring [3H]-thymidine (1 μCi, ICN, Irvine, Calif.) incorporation for the last 16 h of each assay. Cells were harvested onto filters and DNA synthesis was measured following scintillation counting on a Wallac Betaplate counter (Perkin-Elmer/Wallac, Gaithersburg, Md.). Viability was assessed by propidium iodide (5 μg/ml) exclusion in untreated and nucleoside-treated human T cells stained with FITC-CD3 (Becton Dickinson, San Jose, Calif.). […]
# PHA activated PBMC = assay: ELISA spot assay, number of cytokine producing cells; format: cell-based, human; settings: 10 μM
# [1] = system: PMA/ionomycin stimulated T cell; assay: Extracellular cytokine levels (ELISA) in PMA/ionomycin activated human T cells, 0 or 10 μM nucleoside; format: cell-based; settings: 48 h, 5 human donors, of activated control level
# activated human T cells [2] = assay: Analysis of cytokine mRNA (RT-PCR, Southern blot) in PMA-ION activated human T cells; format: cell-based
# activated human T cells [3] = assay: MTT cell proliferation assay; format: cell-based; settings: data not shown
# activated human T cells [4] = assay: T cell proliferation, [3H]-thymidine incorporation; format: cell-based; settings: 48 h, read-out: peak inhibition of T cell proliferation
# [5] = 10 μM, T cells from normal donors and RA patients
# [6] = 2, 5 or 10 μM, 6 h or 24 h, PMA-ION, representative of three donors
# [7] = pro-/anti-inflammatory mediator study, FIG. 18
smiles,measurement,setting,value
"N=C(N)c1cn([C@@H]2O[C@H](CO)[C@@H](O)[C@H]2O)c2nc[nH]c(=O)c12 [ICN 10776, 7-β-D-ribofuranosyl-4-oxopyrrolo-[2,3-d]pyrimidine-5-carboxamidine]",viability of resting CD3+ T cells,"CD3+ T cells; 20 μM, 48 h incubation, decrease from 95%",85%
same,viability of PMA-ION activated CD3+ T cells versus no nucleoside,"CD3+ T cells; 0.2 to 20 μM, 8 h, 24 h, 48 h",no sign difference
same,number of IL-2-producing cells,PHA activated PBMC; 24 h,dramatic fall
same,number of IFNγ-producing cells,PHA activated PBMC; 48 h,dramatic fall
same,number of IL-4 producing cells,PHA activated PBMC; 48 h,substantial increase
same,number of IL-5 producing cells,PHA activated PBMC; 48 h,substantial increase
same,enhanced activated IL-4 production,[1],498%±83
same,suppressed IFNγ,[1],43%±4
same,IFNγ mRNA levels,activated human T cells [2]; [5],suppressed
same,IL-4 mRNA levels,activated human T cells [2]; [5],elevated
same,TNFα mRNA levels,activated human T cells [2]; [5],suppressed
same,IFNγ mRNA,activated human T cells [2]; [6],concomitant decrease
same,IL-4 mRNA,activated human T cells [2]; [6],increase in IL-4 mRNA
same,TNFα mRNA,activated human T cells [2]; [6],concomitant decrease
same,IFNγ mRNA,activated human T cells [2]; [7],suppression
same,IL-1β mRNA,activated human T cells [2]; [7],suppressed
same,IL-2 mRNA,activated human T cells [2]; [7],suppression
same,IL-4 mRNA,activated human T cells [2]; [7],enhancement
same,IL-6 mRNA,activated human T cells [2]; [7],suppressed
same,IL-10 mRNA,activated human T cells [2]; [7],enhancement of IL-10
same,TNFα mRNA,activated human T cells [2]; [7],suppression
same,c-myc expression,activated human T cells [2]; [7],suppression
same,inducible nitric oxide synthase (iNOS) expression,activated human T cells [2]; [7],reduction
same,T cell proliferation (MTT),activated human T cells [3],dramatically inhibited T cell proliferation
same,inhibition at 20 µM,activated human T cells [4],99%
